According to patent US8389020B1, “Immediate action and long-lasting formulation to control moss and liverwort” (Tara Innovations LLC, priority 2011, dated 2013):

Tested on: moss
Assay: Experiment 1: ferrous sulfate/lime mixtures applied to 6″×6″ moss areas in triplicate
Assay type: in vivo
Conditions: in mixture with lime
Description: In order to establish the effective concentration of ferrous sulfate in the formulation, mixtures of ferrous sulfate and lime with a ferrous sulfate concentration between 0 to 60% (w/w) were prepared (Table I) and applied to 6″×6″ area in triplicate. Water was sprayed over the area. The day time high temperature was 40° F. during the experiment and the night temperature decreased to 28° F. In one day, area with 30% or more ferrous sulfate concentration treatment turned black burning all the moss (Table II). The areas with 10% and 20% […] treatment were black in a week. There was no effect of 100% lime on the moss. Thus, a minimum concentration of 10% is suitable for the satisfactory results within a week. When % ferrous sulfate was more than 30%, the moss turned black in one day.

SMILES: O.O.O.O.O.O.O.O=S(=O)([O-])[O-].[Fe+2] [ferrous sulfate, Ferrous sulfate septahydrate (FeSO4.7H2O)]
- Minimum ferrous sulfate concentration suitable for satisfactory results within a week: 10%
